Key:
[1] = system: Bax, Bcl-2, caspase-3 in Bel7402/5-FU cells; assay: Western blotting of apoptosis-related proteins; format: cell-based, human; settings: 72 h
Method: (§1) The HDAC, autophagy and apoptosis-related proteins were analyzed according to Western blotting assay. […]. And anti-Ac-histone H3, anti-Ac-histone H4, anti-Ac-α-tubulin, anti-Bax, anti-Bcl2, anti-H2AX (S139ph), anti-CDK1, anti-cyclin B, and anti-β-actin antibodies (Cell Signaling Technology, MA, United States) detected the target proteins after membranes were blocked with 5% fat-free milk. The peroxidase-conjugated secondary antibodies detected the bound antibodies for 1 h and visualized according to improved chemiluminescent reagent.
[…]; (B) The relative expression levels of each protein (Bax, Bcl-2, pro-caspase-3, and cleaved caspase-3) were quantitatively analyzed using β-actin as reference. The data are presented as the mean ± SD of three separated assays. *p < 0.01 vs. control.

[2] = system: SUMM-7721, Bel7402, Huh7, HCT116 and Bel7402/5FU cells; assay: MTT antiproliferative assay, range over the five cancer cell lines; format: cell-based; settings: Homo sapiens; range over drug-sensitive SUMM-7721, Bel7402, Huh7, HCT116 and drug-resistant Bel7402/5FU cells
Method: (§2) Briefly, appropriate cells (1 × 10^4 cells/mL) were placed into 96-well plates in 100 μL of DMEM medium overnight. Then adding 100 μL of evaluated compounds into individual well for 72 h while 0.1% DMSO aqueous solution was treated as the negative control. After incubation with 30 μl MTT (5 mg/mL) for 4 h in all well, and ELISA plate reader measured absorbance of each well at 570 nm. Then calculating cytotoxicity effect of evaluated compounds through the formula: Cell inhibitory percentage (%) = (1−OD of treatment group/OD of control) × 100%.

[3] = system: Ac-histone H3, Ac-histone H4, Ac-α-tubulin in Bel7402/5-FU cells; assay: Western blotting of acetylated histone H3, H4 and α-tubulin; format: cell-based, human; settings: 2.0 and 5.0 μM, 72 h
Method: as §1
The data (mean ± SD) were obtained from three independent assays. *p < 0.01 vs. control.

[4] = system: cyclin B and CDK1 in Bel7402/5-FU cells; assay: Western blotting of cyclin B and CDK1; format: cell-based, human; settings: 2.0 and 5.0 μM, 72 h, immunoblotting
Method: as §1
. Values (mean ± SD) were obtained from three separate experiments. *p < 0.01 vs. control.

[5] = system: HCT116; assay: MTT antiproliferative assay, HCT116; format: cell-based; settings: Homo sapiens, HCT-116, 72 h, mean ± SD of three experiments, read-out: In vitro antiproliferative activity (IC50) HCT116
Method: as §2

[6] = system: Bel7402/5-FU cells; assay: Cell apoptosis analysis by flow cytometry; format: cell-based, human; settings: 72 h
Method: Briefly, Bel7402/5-FU cells were cultured in DMEM at 37°C with 5% CO2 for 12 h. […] Then Bel7402/5-FU cells were collected and using APC-Annexin V and 7-AAD to stain these cells under the condition of 37°C for 15 min. Flow cytometry analysis (Calibur, BD, United States) decide the percentage of apoptotic cells according to APC signal (FL4) (excitation wavelength at 633 nm; emission wavelength at 660 nm) and 7-AAD staining signal (FL3) (excitation wavelength at 488 nm; emission wavelength at 647 nm). WinList 3D (7.1) analyzed the data and Excel 2016 plotted the histogram.
FIGURE 5 CHC causes apoptosis of Bel7402/5-FU cells. […] The data (mean ± SD, percentage of apoptotic cells) represent the average of three separate experiments. *p < 0.01 vs. control.

[7] = system: SMMC-7721; assay: MTT antiproliferative assay, SMMC-7721; format: cell-based; settings: Homo sapiens, 72 h, mean ± SD of three experiments, read-out: In vitro antiproliferative activity (IC50) SMMC-7721
Method: as §2

[8] = system: Bel7402/5-FU cells; assay: Cell cycle analysis by flow cytometry; format: cell-based, human; settings: 2.0 and 5.0 μM, 72 h
Method: The collected cells were ﬁxed in 70% ethanol at 4°C overnight, and then incubated with RNase A and using PI (Sigma-Aldrich) to stain. Flow cytometry evaluated the percent of Deoxyribonucleic acid (DNA) on ﬂow cytometer (Beckman Coulter). The ModFit LT (Verity, Software House, Topsham, ME, United States) analyzed distribution of cell cycles.
FIGURE 9 CHC caused G2/M arrest in Bel7402/5-FU cells (A) Bel7402/5-FU cells were treated with CHC at different concentrations (0, 2.0, and 5.0 μM) for 72 h; (B) Quantification of cell distribution per phase. Values (mean ± SD) were obtained from three separate experiments. *p < 0.01 vs. control.

[9] = system: CT-DNA; assay: UV-visible spectroscopy titrations with CT DNA; format: binding, calf; settings: 20 μM compound, equal increments of CT-DNA, 25°C
Method: The ultraviolet spectrophotometer (UV2500, Shimadzu, Tokyo, Japan) recorded UV–visible spectroscopy under titrations at 25°C. Tris buffer (5 mM) was used to prepare Stock solutions of CT DNA (20 μM, calf thymus DNA) comprising ideal structure of double stranded DNA. Dissolving synthesized derivative in 1:1000 DMSO/Milli Q water to prepare stock solutions of them (20 μM). UV–visible absorption titrations were carried out with addition of 100 μl CT DNA solution to 4 ml solution of tested compound in quartz cuvette each time interval. Until the absorption band of complex containing synthesized derivative and CT DNA kept at a stable wavelength after adding CT DNA successfully for five times, titrations were finished. Finally, spectrophotometer noted the absorption spectra (250–500 nm).
FIGURE 7 UV-visible absorption spectra of CHC after adding equal amounts of CT DNA. Arrows indicate changes in absorbance with increasing concentrations of DNA [CHC] = 20 μM.

[10] = system: H2AX (S139ph) in Bel7402/5-FU cells; assay: Western blotting of DNA damage marker H2AX; format: cell-based, human; settings: 72 h
Method: as §1
[…]; (B) The relative expression levels of H2AX protein were quantitatively analyzed using an internal reference β-actin, and the data (mean ± SD) were from three separate experiments. *p < 0.01 vs. control.

CN(C)c1ccc(-c2nc(C(=O)NCc3ccc(/C=C/C(=O)NO)cc3)cc3c2[nH]c2ccccc23)cc1 [CHC, (E)-N-(4-(3-(hydroxyamino)-3-oxoprop-1-en-1-yl)benzyl)-1-(4-dimethylaminophenyl)-9H-pyrido [3,4-b]indole-3-carboxamide]
expression of Bax, Bcl-2 and cleavage of caspase-3 [1]: significantly upregulate the expression of Bax and cleavage of caspase-3 and downregulate the expression of Bcl-2 | IC50 [2]: 1840 to 3270 nM | acetylation of H3, H4 and α-tubulin [3]: promoted the acetylation of H3, H4, and α-tubulin with increasing dose | expression of cyclin B and CDK1 [4]: downregulated the expression of cyclin B and CDK1 | IC50 [5]: 2050 ± 190 nM | rate of Annexin V+ Bel7402/5-FU cellular apoptosis ([6]; 2.0 μM): 42.3% | rate of Annexin V+ Bel7402/5-FU cellular apoptosis ([6]; 5.0 μM): 67.2% | IC50 [7]: 3270 ± 360 nM | cell cycle arrest [8]: significantly induced cell cycle arrest at the G2/M phase in a dose-dependent manner | change of UV-visible absorption upon adding CT-DNA [9]: absorption at all wavelengths gradually decreased | expression of phosphorylated H2AX [10]: induced the expression of phosphorylated H2AX in Bel7402/5-FU cells in a dosage-dependent manner

Source: PMC7848139, “Novel Hybrid CHC from β-carboline and N-Hydroxyacrylamide Overcomes Drug-Resistant Hepatocellular Carcinoma by Promoting Apoptosis, DNA Damage, and Cell Cycle Arrest” (Frontiers in Pharmacology, 2021)
